Measured values reported in paper PMC7811009, “Oxytocin modulates local topography of human functional connectome in healthy men at rest” (Communications Biology, 2021).
Where two headings read alike, the source gives them in different places.

How the values were obtained:
[1] = test system: human functional connectome at rest; assay: Resting-state BOLD-fMRI, graph theory: global efficiency (macroscale); 40 IU intranasal (spray/nebuliser) or 10 IU intravenous, about 57 min post-dosing, 16 healthy men; type: in vivo; details: repeated measures one-way ANOVA, F (1.932, 28.980) = 0.568, p = 0.567
Procedure: Each experimental session began with the treatment administration protocol that lasted about 22 min in total (Fig. 8, lower panel). After drug administration, participants were guided to the MRI scanner, where eight pulsed continuous arterial spin labelling scans (each lasting approx. eight minutes) were acquired, spanning 15–104 min post-dosing (data reported elsewhere[11]). The 8-min resting state BOLD-fMRI scan reported herein was obtained at about 57 ± 3.38 min post-dosing. Participants were instructed to lie still and maintain their gaze on a centrally placed fixation cross during scanning. We assessed participants’ levels of alertness (anchors: alert-drowsy) and excitement (anchors: excited-calm) using visual analogue scales (0–100) at three different time-points during the scanning session to evaluate subjective drug effects across time (data reported elsewhere[11]).
MRI data were acquired on a 3 T MR750 system (GE Healthcare, Waukesha, Wisconsin) with a 32-channel head coil. Functional data was acquired using a shot multi-echo echo planar imaging (EPI) sequence (TR = 2500 ms, TE’s = 12, 28, 44 and 60 ms, FA = 80°, FOV = 240 × 240 mm^2, Matrix = 64 × 64, Slice thickness = 3 mm, 32 continuous descending axial slices, resolution = 3.75 × 3.75 × 3 mm). […] The resting state fMRI scan lasted 8 min 10 s, with collection of a total of 192 volumes for each echo. […]

[2] = Plasma oxytocin concentration by radioimmunoassay after 40 IU intranasal (spray or nebuliser) or 10 IU intravenous oxytocin; type: in vivo, human; details: for level at 0.95 h: male, human, 57 minutes post-administration (from last treatment offset), read-out: Concentration of plasmatic oxytocin
Excerpt: We employed a double-blind, placebo-controlled, triple-dummy, crossover design. Participants visited our centre for 4 experimental sessions spaced 8.90 days apart on average (SD = 5.65, range: 5–28 days). In each session, participants received treatment via all three administration routes, in one of two fixed sequences: either nebuliser/intravenous infusion/standard nasal spray, or standard nasal spray/intravenous infusion/nebuliser, according to the treatment administration scheme presented in Fig. 8 (upper panel). In three out of four sessions only one route of administration contained the active drug; in the fourth session, all routes delivered placebo or saline. Participants were randomly allocated to a treatment order (i.e. a specific plan regarding which route delivered the active drug in each experimental session) that was determined using a Latin square design. Unbeknown to the participants, the first treatment administration method in each session always contained placebo (see Fig. 8, upper panel), while intranasal (spray or nebuliser) oxytocin was only delivered with the third treatment administration. This protocol maintained double-blinding while avoiding the potential washing-out of intranasally deposited oxytocin (as might have been the case if oxytocin had been administered at the first treatment administration point and placebo at the third administration point). All sessions were conducted during the morning to minimise potential circadian variability in resting brain activity[79] or oxytocin levels.
For the intranasal administrations, participants self-administered a nominal dose of 40 IU oxytocin (Syntocinon; 40 IU/ml; Novartis, Basel, Switzerland), one of the highest clinically applicable doses[81] that would insure that lack of effects on the brain are unlikely to result from under-dosing. We have shown that 40 IU delivered with a standard nasal spray induce robust rCBF changes in two different cohorts of healthy men using between-[12] and within-subjects[11] designs. Work from others have also reported this dose to modulate resting functional connectivity[19],[82]. For the intranasal administration, we used specially manufactured placebo that contained the same excipients as Syntocinon except for oxytocin. Participants self-administered intranasal oxytocin or placebo with the nasal spray or nebuliser following under the supervision of the lead experimenter who ensured the correct application of the devices. Additionally, all participants had been trained during the screening visit in the correct administration procedures.
Participants followed our standard in-house protocol that we have used consistently across all of our studies and is consistent with the guidelines outlined by Guastella et al. (2013)[83]. […] Participants blocked opposite nostril while administering each puff, and each puff was followed by an immediate, brief, sharp, snort.
Participants self-administered 40 IU oxytocin (Syntocinon) or placebo, by operating the SINUS nebulizer for 3 min in each nostril (6 min in total), according to instructions. The correct application of the device was confirmed by determining gravimetrically the administered volume. Participants were instructed to breathe using only their mouth and to keep a constant breathing rate with their soft palate closed, to minimize delivery to the lungs. Previous studies using this nebuliser[34] have shown up to 9.0% (±1.9%) of the total administered dose to be delivered to the olfactory region, 15.7% (±2.4%) to the upper nose.
For the intravenous administration, we delivered 10 IU oxytocin (Syntocinon injection formulation, 10 IU/ml, Alliance, UK) or saline via slow infusion over 10 min (1IU/min). A 50-ml syringe was loaded with either 32 ml of 0.9% sodium chloride (placebo) or 30 ml of 0.9% sodium chloride with […] of Syntocinon (10 IU/ml). […]

Structure (SMILES): CC[C@H](C)[C@@H]1NC(=O)[C@H](Cc2ccc(O)cc2)NC(=O)[C@@H](N)CSSC[C@@H](C(=O)N2CCC[C@H]2C(=O)N[C@@H](CC(C)C)C(=O)NCC(N)=O)NC(=O)[C@H](CC(N)=O)NC(=O)[C@H](CCC(N)=O)NC1=O [oxytocin]
- Differences in global efficiency across the four treatment conditions [1]: no significant differences
- Plasmatic oxytocin concentrations at post-administration, intravenous versus other conditions ([2]; 57 min post-administration, all pTukey < 0.010): higher in the intravenous condition than in all the other three treatment conditions
- Plasma oxytocin concentrations, spray versus nebuliser ([2]; 57 min post-administration, pTukey = 1.000): did not differ
- Plasma oxytocin concentration at 57 min post-administration compared to baseline ([2]; Intranasal (spray, nebuliser) and intravenous administrations, all pTukey < 0.010): increased plasma oxytocin concentration
- Concentration of plasmatic oxytocin ([2]; Nebuliser (40 IU intranasal, PARI SINUS nebuliser), 57 minutes post-administration, plasma, radioimmunoassay after extraction, mean, n = 16 healthy men): 7.207 pg/mL
- level at 0.95 h ([2]; inhaled or intranasal, Spray (40 IU intranasal, standard nasal spray), plasma, radioimmunoassay after extraction, mean, n = 16 healthy men): 7.03 pg/mL
- level at 0.95 h ([2]; Intravenous (10 IU infusion over 10 min, 1IU/min), plasma, radioimmunoassay after extraction, mean, n = 16 healthy men): 16.4 pg/mL
